Here are results for 1 molecule from publication PMC7044277 (Nature Communications, 2020).

Common to all, as to type: cell-based
For assay [1], the target named is T1, 320 non-olfactory GPCRs (Homo sapiens, UniProt Q86VZ1).
T1 construct: expressed in transfected cells; host or cells: HTLA cells
The note with it: receptor P2RY8; replicate values, Fig_4g.

Assay [2] has as its target T2, 320 non-olfactory GPCRs (Homo sapiens, UniProt P25100).
T2 construct: expressed in transfected cells; host or cells: HTLA cells

In assay [3] the target is 320 non-olfactory GPCRs (Homo sapiens, UniProt P11229).
Chain of 320 non-olfactory GPCRs (Homo sapiens, UniProt P11229) (P11229 whole entry): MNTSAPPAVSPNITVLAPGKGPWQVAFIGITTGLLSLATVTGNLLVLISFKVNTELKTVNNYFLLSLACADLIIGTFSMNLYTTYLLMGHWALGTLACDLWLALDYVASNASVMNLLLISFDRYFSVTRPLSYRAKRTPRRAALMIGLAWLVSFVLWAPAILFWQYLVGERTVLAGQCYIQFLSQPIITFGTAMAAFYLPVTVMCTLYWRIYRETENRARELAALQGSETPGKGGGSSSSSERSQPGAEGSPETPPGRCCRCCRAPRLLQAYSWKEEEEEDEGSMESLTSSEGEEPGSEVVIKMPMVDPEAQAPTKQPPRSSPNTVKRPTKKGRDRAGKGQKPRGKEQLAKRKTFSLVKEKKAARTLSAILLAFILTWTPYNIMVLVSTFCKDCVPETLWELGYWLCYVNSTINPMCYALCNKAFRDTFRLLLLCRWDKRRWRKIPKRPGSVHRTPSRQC
In assay [4] the target is T3, 320 non-olfactory GPCRs (Homo sapiens, UniProt P46091).
T3 construct: expressed in transfected cells; host or cells: HTLA cells
T3 sequence (P46091 whole entry): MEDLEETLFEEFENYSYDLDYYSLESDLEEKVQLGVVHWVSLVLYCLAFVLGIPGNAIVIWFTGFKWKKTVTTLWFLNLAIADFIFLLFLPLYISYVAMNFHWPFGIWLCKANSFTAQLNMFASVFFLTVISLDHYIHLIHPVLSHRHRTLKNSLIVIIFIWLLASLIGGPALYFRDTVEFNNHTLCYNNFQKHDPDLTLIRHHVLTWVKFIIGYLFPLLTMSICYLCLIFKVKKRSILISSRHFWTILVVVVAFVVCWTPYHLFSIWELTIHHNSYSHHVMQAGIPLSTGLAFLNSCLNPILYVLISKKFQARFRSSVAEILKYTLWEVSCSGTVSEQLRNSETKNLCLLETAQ

Where “and” joins values, the source holds several entries; their conditions need not be identical. Equal entries are not always repeated.
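Wherever Fold of Basal is given: compound tested at 1 µM final concentration.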
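Wherever GPCRome agonism screen response is given: fold over basal response of each receptor without drug.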

T2 sequence (P25100 whole entry): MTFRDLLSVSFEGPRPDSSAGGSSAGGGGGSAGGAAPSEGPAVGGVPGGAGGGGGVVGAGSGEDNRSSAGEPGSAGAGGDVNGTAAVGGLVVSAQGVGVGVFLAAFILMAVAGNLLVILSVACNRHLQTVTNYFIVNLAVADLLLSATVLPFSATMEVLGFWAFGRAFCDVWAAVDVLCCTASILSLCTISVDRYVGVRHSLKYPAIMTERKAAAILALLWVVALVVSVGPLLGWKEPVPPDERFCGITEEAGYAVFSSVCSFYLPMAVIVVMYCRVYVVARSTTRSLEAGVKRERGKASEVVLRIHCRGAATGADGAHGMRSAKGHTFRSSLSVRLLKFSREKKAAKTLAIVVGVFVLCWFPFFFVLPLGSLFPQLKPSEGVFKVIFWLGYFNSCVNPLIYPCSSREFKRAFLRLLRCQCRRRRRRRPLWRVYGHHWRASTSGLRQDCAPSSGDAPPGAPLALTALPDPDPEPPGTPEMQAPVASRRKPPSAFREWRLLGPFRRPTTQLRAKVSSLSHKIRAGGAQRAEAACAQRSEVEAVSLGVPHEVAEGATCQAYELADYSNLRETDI
T1 sequence (Q86VZ1 whole entry): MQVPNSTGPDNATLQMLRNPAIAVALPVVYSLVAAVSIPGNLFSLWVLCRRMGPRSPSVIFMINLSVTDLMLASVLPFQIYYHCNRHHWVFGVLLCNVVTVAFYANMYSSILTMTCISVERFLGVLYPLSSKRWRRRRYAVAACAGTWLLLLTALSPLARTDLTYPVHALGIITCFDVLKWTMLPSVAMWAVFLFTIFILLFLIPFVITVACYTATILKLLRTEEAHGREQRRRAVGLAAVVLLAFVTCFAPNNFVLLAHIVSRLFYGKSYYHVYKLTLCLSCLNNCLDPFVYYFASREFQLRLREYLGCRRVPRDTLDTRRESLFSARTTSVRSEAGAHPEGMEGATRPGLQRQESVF

For `CCOc1cccc2cc(C(C)NCC3(O)CCCCC3)oc12` (stereo not shown) [O4LE6], the “GPCRome agonism screen response” value on 320 non-olfactory GPCRs [1] was 0.862 and 0.8339 and 1.83 and 1.383. For the same molecule, the “Fold of Basal” value on 320 non-olfactory GPCRs [2] was 1.061 and 0.9787 and 0.8777 and 0.6895; at 320 non-olfactory GPCRs [3], 0.6962 and 0.7878 and 0.5081 and 0.6515; on 320 non-olfactory GPCRs [4], 1.745 and 1.544 and 1.297 and 1.2172.
